How the values were obtained:
Assay in all cases: Competitive isoTOP-ABPP, cell lysates;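 for isoTOP-ABPP reactivity profile ratio, P09211 C48: Heavy/light ratio DMSO over fragment-treated so higher means more cysteine engagement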;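 for isoTOP-ABPP reactivity profile ratio, Q15084 C190: Heavy/light ratio DMSO over fragment-treated so higher means more cysteine engagement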
Format in all cases: binding
GSTP1 C48 (P09211) = GSTP1 C48 (P09211) (Homo sapiens, UniProt P09211); conditions: for isoTOP-ABPP ratio, P09211_C48: 500 μM, invitro;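 for isoTOP-ABPP reactivity profile ratio, P09211 C48: Heavy/light ratio DMSO over fragment-treated so higher means more cysteine engagement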
PDIA6 C190 (Q15084) = molecular target: T1, PDIA6 C190 (Q15084) (Homo sapiens, UniProt Q15084);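 for isoTOP-ABPP reactivity profile ratio, Q15084 C190: Heavy/light ratio DMSO over fragment-treated so higher means more cysteine engagement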
T1 sequence (Q15084 20-440): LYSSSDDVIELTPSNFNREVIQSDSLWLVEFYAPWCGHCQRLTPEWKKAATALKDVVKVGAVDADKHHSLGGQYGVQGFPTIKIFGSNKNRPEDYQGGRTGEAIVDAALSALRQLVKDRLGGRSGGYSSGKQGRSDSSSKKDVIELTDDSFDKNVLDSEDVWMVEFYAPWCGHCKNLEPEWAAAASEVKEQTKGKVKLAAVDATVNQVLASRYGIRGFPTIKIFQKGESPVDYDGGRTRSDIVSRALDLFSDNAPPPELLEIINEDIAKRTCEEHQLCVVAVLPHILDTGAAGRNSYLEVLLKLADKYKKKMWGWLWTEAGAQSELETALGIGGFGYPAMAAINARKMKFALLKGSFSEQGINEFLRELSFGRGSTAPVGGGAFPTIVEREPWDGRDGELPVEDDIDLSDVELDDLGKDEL

UBE2L3 C86 (P68036) = UBE2L3 C86 (P68036) (Homo sapiens, UniProt P68036); conditions: 500 μm
GNB2L1 C182 (P63244) = GNB2L1 C182 (P63244) (Homo sapiens, UniProt P63244); conditions: for isoTOP-ABPP reactivity ratio, P63244_C182: 500 μm; for isoTOP-ABPP ratio, P63244_C182: 500 μM, invitro
ZNF217 C286 (O75362) = ZNF217 C286 (O75362) (Homo sapiens, UniProt O75362); conditions: for isoTOP-ABPP reactivity ratio, O75362_C286: 500 μm
AIP C122 (O00170) = molecular target: T2, AIP C122 (O00170) (Homo sapiens, UniProt O00170); conditions: for isoTOP-ABPP reactivity ratio, O00170_C122: 500 μm
T2 sequence (O00170 1-330): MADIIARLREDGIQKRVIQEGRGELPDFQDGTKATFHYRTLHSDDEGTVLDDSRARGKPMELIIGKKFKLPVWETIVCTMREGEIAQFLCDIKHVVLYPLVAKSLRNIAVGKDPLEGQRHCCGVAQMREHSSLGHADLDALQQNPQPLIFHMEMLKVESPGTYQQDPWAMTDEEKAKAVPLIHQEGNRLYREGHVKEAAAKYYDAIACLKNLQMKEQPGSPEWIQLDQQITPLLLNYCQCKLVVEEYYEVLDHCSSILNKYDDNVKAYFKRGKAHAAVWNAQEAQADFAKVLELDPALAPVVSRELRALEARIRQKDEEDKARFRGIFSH

UCHL3 C95 (P15374) = molecular target: T3, UCHL3 C95 (P15374) (Homo sapiens, UniProt P15374)
T3 sequence (P15374 1-230): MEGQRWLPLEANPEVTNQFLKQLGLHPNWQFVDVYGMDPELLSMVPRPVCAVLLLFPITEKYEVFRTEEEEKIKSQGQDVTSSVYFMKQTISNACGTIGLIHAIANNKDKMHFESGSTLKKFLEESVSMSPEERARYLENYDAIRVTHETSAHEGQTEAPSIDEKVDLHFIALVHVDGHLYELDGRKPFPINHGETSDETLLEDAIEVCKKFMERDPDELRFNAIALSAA

PRMT1 C109 (Q99873) = PRMT1 C109 (Q99873) (Homo sapiens, UniProt Q99873); conditions: for isoTOP-ABPP ratio, Q99873_C109: 500 μM, invitro
SMARCC2 C145 (Q8TAQ2) = SMARCC2 C145 (Q8TAQ2) (Homo sapiens, UniProt Q8TAQ2); conditions: for isoTOP-ABPP ratio Q8TAQ2_C145: 500 μM, invitro
SAMHD1 C522 (Q9Y3Z3) = SAMHD1 C522 (Q9Y3Z3) (Homo sapiens, UniProt Q9Y3Z3); conditions: 500 μm, in-vitro_ramos_231

SMILES: C=CC(=O)Nc1cc(F)c(N2CCN(C(=O)OC(C)(C)C)CC2)c(F)c1 [compound 38]
- isoTOP-ABPP reactivity ratio, P09211_C48 (GSTP1 C48 (P09211); 500 μm, in-vitro_ramos_231): 1.9
- isoTOP-ABPP reactivity ratio, Q15084_C190 (PDIA6 C190 (Q15084); 500 μm, in-vitro_ramos_231): 1.1
- isoTOP-ABPP reactivity ratio, P68036_C86 (UBE2L3 C86 (P68036); in-vitro_ramos): 1.5
- isoTOP-ABPP reactivity ratio, P63244_C182 (GNB2L1 C182 (P63244); in-vitro_ramos_231): 1.1
- isoTOP-ABPP reactivity ratio, O75362_C286 (ZNF217 C286 (O75362); in-vitro_ramos): 1.2
- isoTOP-ABPP reactivity ratio, O75362_C286 (ZNF217 C286 (O75362); in-vitro_ramos_231): 0.9
- isoTOP-ABPP reactivity ratio, O00170_C122 (AIP C122 (O00170); in-vitro_ramos): 1.5
- isoTOP-ABPP reactivity ratio, O00170_C122 (AIP C122 (O00170); in-vitro_ramos_231): 1.5
- isoTOP-ABPP reactivity ratio, P15374_C95 (UCHL3 C95 (P15374); 500 μm, in-vitro_ramos): 12.5
- isoTOP-ABPP reactivity ratio, P15374_C95 (UCHL3 C95 (P15374); 500 μm, in-vitro_ramos_231): 2.7
- isoTOP-ABPP reactivity ratio, Q99873_C109 (PRMT1 C109 (Q99873); 500 μm, in-vitro_ramos): 1.4
- isoTOP-ABPP reactivity ratio, Q99873_C109 (PRMT1 C109 (Q99873); 500 μm, in-vitro_ramos_231): 0.9
- isoTOP-ABPP reactivity ratio, Q8TAQ2_C145 (SMARCC2 C145 (Q8TAQ2); 500 μm, in-vitro_ramos): 1.9
- isoTOP-ABPP reactivity ratio, Q8TAQ2_C145 (SMARCC2 C145 (Q8TAQ2); 500 μm, in-vitro_ramos_231): 1.1

SMILES: C=CC(=O)Nc1cc(C)c(Br)cc1C [compound 40]
- isoTOP-ABPP reactivity ratio, P09211_C48 (GSTP1 C48 (P09211); 500 μm, in-vitro_ramos): 1.6
- isoTOP-ABPP reactivity ratio, P09211_C48 (GSTP1 C48 (P09211); 500 μm, in-vitro_ramos_231): 1.6
- isoTOP-ABPP reactivity ratio, Q15084_C190 (PDIA6 C190 (Q15084); 500 μm, in-vitro_ramos): 1.7
- isoTOP-ABPP reactivity ratio, Q15084_C190 (PDIA6 C190 (Q15084); 500 μm, in-vitro_ramos_231): 0.9
- isoTOP-ABPP reactivity ratio, P68036_C86 (UBE2L3 C86 (P68036); in-vitro_ramos): 0.9
- isoTOP-ABPP reactivity ratio, P68036_C86 (UBE2L3 C86 (P68036); in-vitro_ramos_231): 0.8
- isoTOP-ABPP reactivity ratio, P63244_C182 (GNB2L1 C182 (P63244); in-vitro_ramos): 0.6
- isoTOP-ABPP reactivity ratio, P63244_C182 (GNB2L1 C182 (P63244); in-vitro_ramos_231): 1.0
- isoTOP-ABPP reactivity ratio, Q9Y3Z3_C522 (SAMHD1 C522 (Q9Y3Z3)): 0.8
- isoTOP-ABPP reactivity ratio, P15374_C95 (UCHL3 C95 (P15374); 500 μm, in-vitro_ramos): 0.9
- isoTOP-ABPP reactivity ratio, Q99873_C109 (PRMT1 C109 (Q99873); 500 μm, in-vitro_ramos): 1.3
- isoTOP-ABPP reactivity ratio, Q99873_C109 (PRMT1 C109 (Q99873); 500 μm, in-vitro_ramos_231): 0.8
- isoTOP-ABPP reactivity ratio, Q8TAQ2_C145 (SMARCC2 C145 (Q8TAQ2); 500 μm, in-vitro_ramos): 1.1
- isoTOP-ABPP reactivity ratio, Q8TAQ2_C145 (SMARCC2 C145 (Q8TAQ2); 500 μm, in-vitro_ramos_231): 0.9

SMILES: O=C(CCl)NC(=O)NC12CC3CC(CC(C3)C1)C2 [compound 12]
- isoTOP-ABPP ratio, P09211_C48 (GSTP1 C48 (P09211); 231): 2.9
- isoTOP-ABPP ratio, P09211_C48 (GSTP1 C48 (P09211); ramos): 1.1
- isoTOP-ABPP ratio, Q15084_C190 (PDIA6 C190 (Q15084); 500 μM, invitro, ramos): 20.0
- isoTOP-ABPP ratio, P63244_C182 (GNB2L1 C182 (P63244); 231): 0.9
- isoTOP-ABPP ratio, P63244_C182 (GNB2L1 C182 (P63244); ramos): 0.8
- isoTOP-ABPP ratio O75362_C286 (ZNF217 C286 (O75362); 500 μM, invitro, 231): 1.0
- isoTOP-ABPP ratio, O00170_C122 (AIP C122 (O00170); 500 μM, invitro, ramos): 1.3
- isoTOP-ABPP ratio, P15374_C95 (UCHL3 C95 (P15374); 500 μM, invitro, ramos): 0.5
- isoTOP-ABPP ratio, Q99873_C109 (PRMT1 C109 (Q99873); 231): 1.4
- isoTOP-ABPP ratio, Q99873_C109 (PRMT1 C109 (Q99873); ramos): 1.3
- isoTOP-ABPP ratio Q8TAQ2_C145 (SMARCC2 C145 (Q8TAQ2); 231): 2.8
- isoTOP-ABPP ratio Q8TAQ2_C145 (SMARCC2 C145 (Q8TAQ2); ramos): 1.6

SMILES: O=C(CCl)NC1C(O)OC(CO)C(O)C1O (mixture of isomers) [compound 44]
- isoTOP-ABPP reactivity profile ratio, P09211_C48 (GSTP1 C48 (P09211); 500 μm, in-vitro_ramos_231): 0.9
- isoTOP-ABPP reactivity profile ratio, Q15084_C190 (PDIA6 C190 (Q15084); 500 μm, in-vitro_ramos_231): 1.0
- isoTOP-ABPP reactivity profile ratio, Q9Y3Z3_C522 (SAMHD1 C522 (Q9Y3Z3)): 0.8
- isoTOP-ABPP reactivity profile ratio, P15374_C95 (UCHL3 C95 (P15374); 500 μm, in-vitro_ramos_231): 0.8
- isoTOP-ABPP reactivity profile ratio, Q99873_C109 (PRMT1 C109 (Q99873); 500 μm, in-vitro_ramos_231): 0.8
- isoTOP-ABPP reactivity profile ratio, Q8TAQ2_C145 (SMARCC2 C145 (Q8TAQ2); 500 μm, in-vitro_ramos_231): 1.0
